Reference: PubChem BioAssay AID2060505 (Molecular Pharmacology Branch, DTP, NCI, 2025)

System: 633275-114-R-J1-PDC complex spheroids, viability
Assay: Anticancer human tumor 633275-114-R-J1-PDC patient-derived endometrial adenocarcinoma cell line growth inhibition [GQUAD]
Details: for IC50: curve of first compound; for viability, T/C: stronger effect = lower value
Procedure, shortened: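 Multi-cell-type spheroids of tumor cells with HUVEC and mesenchymal stem cells, treated with drug combinations. Concentrations descend in half-log steps from near clinical Cmax, or from 10 microM where Cmax is unknown; viability read-out.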

[1] = second compound 0.0316 µM, first compound 0.0316 µM
[2] = second compound 0.0316 µM, first compound 0.316 µM
[3] = second compound 0.1 µM, first compound 0.0316 µM
[4] = second compound 0.1 µM, first compound 0.316 µM
[5] = second compound 0.316 µM, first compound 0.0316 µM
[6] = second compound 0.316 µM, first compound 0.316 µM
[7] = second compound 1 µM, first compound 0.0316 µM
[8] = second compound 1 µM, first compound 0.316 µM
[9] = second compound 3.16 µM, first compound 0.0316 µM
[10] = second compound 3.16 µM, first compound 0.316 µM
[11] = second compound 10 µM, first compound 0.0316 µM
[12] = second compound 10 µM, first compound 0.316 µM
[13] = second compound 0.0316 µM, first compound 0.000999 µM
[14] = second compound 0.0316 µM, first compound 0.00316 µM
[15] = second compound 0.0316 µM, first compound 0.00999 µM
[16] = second compound 0.0316 µM, first compound 0.0999 µM
[17] = second compound 0.1 µM, first compound 0.000999 µM
[18] = second compound 0.1 µM, first compound 0.00316 µM
[19] = second compound 0.1 µM, first compound 0.00999 µM
[20] = second compound 0.1 µM, first compound 0.0999 µM
[21] = second compound 0.316 µM, first compound 0.000999 µM
[22] = second compound 0.316 µM, first compound 0.00316 µM
[23] = second compound 0.316 µM, first compound 0.00999 µM
[24] = second compound 0.316 µM, first compound 0.0999 µM
[25] = second compound 1 µM, first compound 0.000999 µM
[26] = second compound 1 µM, first compound 0.00316 µM
[27] = second compound 1 µM, first compound 0.00999 µM
[28] = second compound 1 µM, first compound 0.0999 µM
[29] = second compound 3.16 µM, first compound 0.000999 µM
[30] = second compound 3.16 µM, first compound 0.00316 µM
[31] = second compound 3.16 µM, first compound 0.00999 µM
[32] = second compound 3.16 µM, first compound 0.0999 µM
[33] = second compound 10 µM, first compound 0.000999 µM
[34] = second compound 10 µM, first compound 0.00316 µM
[35] = second compound 10 µM, first compound 0.00999 µM
[36] = second compound 10 µM, first compound 0.0999 µM
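Further: spheroids exposed to the agents for seven days.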
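Wherever viability, T/C is given: percent of DMSO vehicle control viability which is 100%.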

C=CC(=O)N1CCN(c2nc(=O)n(-c3c(C)ccnc3C(C)C)c3nc(-c4c(O)cccc4F)c(F)cc23)C(C)C1 (stereo unspecified) + Cc1[nH]c2ccc(F)cc2c1-c1nc2c3cccnc3c3ncccc3c2[nH]1
IC50 (second compound 0.0316 µM): > 10000 nM | IC50 (second compound 0.1 µM): > 10000 nM | IC50 (second compound 0.316 µM): > 10000 nM | IC50 (second compound 1 µM): > 10000 nM | IC50 (second compound 3.16 µM): > 10000 nM | IC50 (second compound 10 µM): > 10000 nM | viability, T/C [1]: 95.3% | viability, T/C (second compound 0.0316 µM, first compound 0.1 µM): 100% | viability, T/C [2]: 93.9% | viability, T/C (second compound 0.0316 µM, first compound 1 µM): 104% | viability, T/C (second compound 0.0316 µM, first compound 3.16 µM): 104% | viability, T/C (second compound 0.0316 µM, first compound 10 µM): 77.9% | viability, T/C [3]: 106% | viability, T/C (second compound 0.1 µM, first compound 0.1 µM): 105% | viability, T/C [4]: 102% | viability, T/C (second compound 0.1 µM, first compound 1 µM): 100% | viability, T/C (second compound 0.1 µM, first compound 3.16 µM): 105% | viability, T/C (second compound 0.1 µM, first compound 10 µM): 88.9% | viability, T/C [5]: 97.3% | viability, T/C (second compound 0.316 µM, first compound 0.1 µM): 98.1% | viability, T/C [6]: 103% | viability, T/C (second compound 0.316 µM, first compound 1 µM): 97.6% | viability, T/C (second compound 0.316 µM, first compound 3.16 µM): 105% | viability, T/C (second compound 0.316 µM, first compound 10 µM): 83.3% | viability, T/C [7]: 91.5% | viability, T/C (second compound 1 µM, first compound 0.1 µM): 92.4% | viability, T/C [8]: 94.7% | viability, T/C (second compound 1 µM, first compound 1 µM): 98.1% | viability, T/C (second compound 1 µM, first compound 3.16 µM): 90.1% | viability, T/C (second compound 1 µM, first compound 10 µM): 77.9% | viability, T/C [9]: 72.5% | viability, T/C (second compound 3.16 µM, first compound 0.1 µM): 74.9% | viability, T/C [10]: 75.8% | viability, T/C (second compound 3.16 µM, first compound 1 µM): 76.3% | viability, T/C (second compound 3.16 µM, first compound 3.16 µM): 74.2% | viability, T/C (second compound 3.16 µM, first compound 10 µM): 62.6% | viability, T/C [11]: 67% | viability, T/C (second compound 10 µM, first compound 0.1 µM): 71.8% | viability, T/C [12]: 68.2% | viability, T/C (second compound 10 µM, first compound 1 µM): 78.7% | viability, T/C (second compound 10 µM, first compound 3.16 µM): 71.6% | viability, T/C (second compound 10 µM, first compound 10 µM): 59%

CC[C@@]1(O)C(=O)OCc2c1cc1n(c2=O)Cc2cc3c(CN(C)C)c(O)ccc3nc2-1 + Cc1[nH]c2ccc(F)cc2c1-c1nc2c3cccnc3c3ncccc3c2[nH]1
IC50 (second compound 0.0316 µM): 79.9 nM | IC50 (second compound 0.1 µM): 83.9 nM | IC50 (second compound 0.316 µM): 74.4 nM | IC50 (second compound 1 µM): 73.1 nM | IC50 (second compound 3.16 µM): 46.3 nM | IC50 (second compound 10 µM): 43.4 nM | viability, T/C [13]: 98.6% | viability, T/C [14]: 91.9% | viability, T/C [15]: 86.8% | viability, T/C [1]: 69.6% | viability, T/C [16]: 43.9% | viability, T/C [2]: 36.9% | viability, T/C [17]: 93.8% | viability, T/C [18]: 93.6% | viability, T/C [19]: 87.7% | viability, T/C [3]: 73.4% | viability, T/C [20]: 45.3% | viability, T/C [4]: 35.8% | viability, T/C [21]: 94% | viability, T/C [22]: 99.1% | viability, T/C [23]: 88.2% | viability, T/C [5]: 71.2% | viability, T/C [24]: 41.8% | viability, T/C [6]: 36.5% | viability, T/C [25]: 90.4% | viability, T/C [26]: 91.8% | viability, T/C [27]: 79.3% | viability, T/C [7]: 68% | viability, T/C [28]: 41.9% | viability, T/C [8]: 36.3% | viability, T/C [29]: 71.7% | viability, T/C [30]: 70.4% | viability, T/C [31]: 69.1% | viability, T/C [9]: 56.5% | viability, T/C [32]: 37.1% | viability, T/C [10]: 33.2% | viability, T/C [33]: 66.5% | viability, T/C [34]: 74.4% | viability, T/C [35]: 71% | viability, T/C [11]: 54.6% | viability, T/C [36]: 36.5% | viability, T/C [12]: 29.7%

CCc1c2c(nc3ccc(O)cc13)-c1cc3c(c(=O)n1C2)COC(=O)[C@]3(O)CC + Cc1[nH]c2ccc(F)cc2c1-c1nc2c3cccnc3c3ncccc3c2[nH]1
IC50 (second compound 0.0316 µM): 2.44 nM | IC50 (second compound 0.1 µM): 3.09 nM | IC50 (second compound 0.316 µM): 2.7 nM | IC50 (second compound 1 µM): 2.27 nM | IC50 (second compound 3.16 µM): 1.62 nM | IC50 (second compound 10 µM): 1.41 nM | viability, T/C [13]: 69.7% | viability, T/C [14]: 42.2% | viability, T/C [15]: 36.2% | viability, T/C [1]: 31.7% | viability, T/C [16]: 30% | viability, T/C [2]: 24.7% | viability, T/C [17]: 71.1% | viability, T/C [18]: 47.1% | viability, T/C [19]: 37.2% | viability, T/C [3]: 34.3% | viability, T/C [20]: 27.3% | viability, T/C [4]: 22.3% | viability, T/C [21]: 68.8% | viability, T/C [22]: 44.2% | viability, T/C [23]: 37.5% | viability, T/C [5]: 31.4% | viability, T/C [24]: 28% | viability, T/C [6]: 22.4% | viability, T/C [25]: 62.6% | viability, T/C [26]: 43.5% | viability, T/C [27]: 35.1% | viability, T/C [7]: 32.3% | viability, T/C [28]: 27.5% | viability, T/C [8]: 23.4% | viability, T/C [29]: 57.5% | viability, T/C [30]: 38.9% | viability, T/C [31]: 33.2% | viability, T/C [9]: 30.8% | viability, T/C [32]: 27.6% | viability, T/C [10]: 25.8% | viability, T/C [33]: 55.2% | viability, T/C [34]: 37.7% | viability, T/C [35]: 33% | viability, T/C [11]: 29.5% | viability, T/C [36]: 24.8% | viability, T/C [12]: 23.7%
